Laboratory results reported in the supplement of paper PMC11208160.

assay: recombinant UMI read abundance after kanamycin selection (control-corrected) (log10(CPM+1)); higher = more efficient recombination; extreme values may be limits of the assay; sequences stand for … in AGTGCAGAGAAAATCGGCCAGTTTTCTCTGCCTGCAGTCCGCATGCCGTGGGACCCCTTGGGTTCTAACCTGTTGCCTAGATTTATGCAGCGGACTGCCTTTCTCCCAAAGTGATAAACCGG…AGGTTGGTTTCACT; site = the 11-nt donor
How it was run: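 For the IS621 bridge recombinase, a pooled Escherichia coli screen tested donor and donor-binding-loop pairs. Cells received the pair library together with a target plasmid encoding a fixed target and T7-inducible recombinase, then went onto IPTG (0.07 mM) plus kanamycin or unselected plates in duplicate. After PCR across the donor–target junction and sequencing, recombinant UMI counts were normalized to CPM, averaged, and scaled by control-derived factors. Each value is given as log10(CPM+1).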
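Further: IS621 bridge recombinase in Escherichia coli cells against a fixed T5 target plasmid.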

Sequence | recombinant UMI read abundance (log10)
TCAGAGACATGGACCGGTTTTCCCGGTAATCCGTATTTGCG (site TCCGAGACTCG) | 0.462
AGCTCAGCATGGACCGGTTTTCCCGGTAATCCGTATTTGGC (site AGCTCAGCTGC) | 2.19
CTAGGATCATGGACCGGTTTTCCCGGTAATCCGTATTTGAT (site CTAGTATCTGT) | 0.00727
TACACCGCATGGACCGGTTTTCCCGGTAATCCGTATTTGCG (site TTCACCGCTCG) | 0.00838
CAAATCACATGGACCGGTTTTCCCGGTAATCCGTATTTGGG (site CAACTCACTCC) | 0.02
GGCCAGTCATGGACCGGTTTTCCCGGTAATCCGTATTTGCA (site GGCCAGTCTTG) | 2.73
GTCGGGGCATGGACCGGTTTTCCCGGTAATCCGTATTTGGC (site GTCGGGGCTGC) | 1.22
GCCTAGCCATGGACCGGTTTTCCCGGTAATCCGTATTTGCC (site GCCTAGCCTGG) | 0
TCAGAGACATGGACCGGTTTTCCCGGTAATCCGTATTTGCG (site TCAGAGTCTCG) | 1.37
CTAGTCGCATGGACCGGTTTTCCCGGTAATCCGTATTTGCG (site GTAGTCGCTCG) | 0
CAAGCAGCATGGACCGGTTTTCCCGGTAATCCGTATTTGCT (site CAAGCAGCTAT) | 2.19
CTACCATCATGGACCGGTTTTCCCGGTAATCCGTATTTGGT (site CTACCATCTAC) | 0.00462
ATAGGAGCATGGACCGGTTTTCCCGGTAATCCGTATTTGGC (site ATAGGAGCTGC) | 2.91
TTTGCGGCATGGACCGGTTTTCCCGGTAATCCGTATTTGCT (site TTTGCGGCTAG) | 0.75
TTAGAGACATGGACCGGTTTTCCCGGTAATCCGTATTTGCG (site TGAGAGACTCG) | 0.02
AGCTCAGCATGGACCGGTTTTCCCGGTAATCCGTATTTGGG (site AACTCAGCTCC) | 0
CAAGGCCCATGGACCGGTTTTCCCGGTAATCCGTATTTGTC (site CAAGGCCCTGA) | 2.07
CGTAGAACATGGACCGGTTTTCCCGGTAATCCGTATTTGTT (site CGTTGAACTAA) | 0.0104
AGCCTGGCATGGACCGGTTTTCCCGGTAATCCGTATTTGTT (site AGCCTCGCTAA) | 0.0194
TGAGGAGCATGGACCGGTTTTCCCGGTAATCCGTATTTGGT (site TGAGGAGCTAC) | 1.12
CAAGGAGCATGGACCGGTTTTCCCGGTAATCCGTATTTGCT (site CAAGGAGCTAG) | 2.76
CCGTTAGCATGGACCGGTTTTCCCGGTAATCCGTATTTGTA (site CCGTTAGCTTA) | 0.601
TGTACACCATGGACCGGTTTTCCCGGTAATCCGTATTTGAA (site TGTACACCTCT) | 0.00905
ATGATATCATGGACCGGTTTTCCCGGTAATCCGTATTTGCA (site ATGATATCTTG) | 2.39
CTACGAACATGGACCGGTTTTCCCGGTAATCCGTATTTGGA (site CTACAAACTTC) | 1.46

Sequence | recombinant UMI read abundance (log10)
AACAGCGCATGGACCGGTTTTCCCGGTAATCCGTATTTGAC (site AACAGCGCTGT) | 2
CGTAAGACATGGACCGGTTTTCCCGGTAATCCGTATTTGAG (site CGTTAGACTCT) | 0.396
GTTAGAGCATGGACCGGTTTTCCCGGTAATCCGTATTTGGG (site GTTAGAGCTCC) | 0.089
CGGGAAGCATGGACCGGTTTTCCCGGTAATCCGTATTTGAT (site CGGGAAACTAT) | 1.7
GGTAATTCATGGACCGGTTTTCCCGGTAATCCGTATTTGGT (site GGTAATTCTAC) | 1.18
GCGAAGCCATGGACCGGTTTTCCCGGTAATCCGTATTTGGG (site TCGAAGCCTCC) | 0.0116
CGCTGTACATGGACCGGTTTTCCCGGTAATCCGTATTTGCT (site CGCCGTACTAG) | 1.54
CGATCATCATGGACCGGTTTTCCCGGTAATCCGTATTTGGT (site CGATCATCTAA) | 0.00543
ATTGCGGCATGGACCGGTTTTCCCGGTAATCCGTATTTGCT (site TTTGCGGCTAG) | 0.371
CCGGGTCCATGGACCGGTTTTCCCGGTAATCCGTATTTGCA (site CCCGGTCCTTG) | 0
TGTTCCACATGGACCGGTTTTCCCGGTAATCCGTATTTGTA (site TGTTCCTCTTA) | 0.0149
CAAGCGCCATGGACCGGTTTTCCCGGTAATCCGTATTTGTA (site CAAGCGCCTAA) | 0.239
GCCATATCATGGACCGGTTTTCCCGGTAATCCGTATTTGTC (site CCCATATCTGA) | 0.61
ATCTGTGCATGGACCGGTTTTCCCGGTAATCCGTATTTGGC (site ATCTGTGCTGC) | 0
GCGAAGCCATGGACCGGTTTTCCCGGTAATCCGTATTTGGG (site GTGAAGCCTCC) | 0.0355
CAATGCGCATGGACCGGTTTTCCCGGTAATCCGTATTTGAA (site CAATGCACTTT) | 1.15
CGATACTCATGGACCGGTTTTCCCGGTAATCCGTATTTGCT (site CGATACTCTAG) | 2.52
CCACTAACATGGACCGGTTTTCCCGGTAATCCGTATTTGGA (site CCACTAACTTC) | 0.235
CTGGTATCATGGACCGGTTTTCCCGGTAATCCGTATTTGCC (site CTAGTATCTGT) | 0
GGTAGGTCATGGACCGGTTTTCCCGGTAATCCGTATTTGTT (site GGTACGTCTAA) | 0.0163
CCGCTTACATGGACCGGTTTTCCCGGTAATCCGTATTTGGA (site CCGCTTACTTC) | 0.539
AATGTAACATGGACCGGTTTTCCCGGTAATCCGTATTTGAT (site AATGTAACTAA) | 0.00583
TGTAAACCATGGACCGGTTTTCCCGGTAATCCGTATTTGAC (site TGTATACCTGT) | 0
AAGCACGCATGGACCGGTTTTCCCGGTAATCCGTATTTGAG (site AAGCACGCTCC) | 0.225
CGAGGACCATGGACCGGTTTTCCCGGTAATCCGTATTTGAG (site CGAGGACCTCG) | 0.00506

Sequence | recombinant UMI read abundance (log10)
TCCAATTCATGGACCGGTTTTCCCGGTAATCCGTATTTGAC (site TCCAATTCTGA) | 0
TTAGGTGCATGGACCGGTTTTCCCGGTAATCCGTATTTGGT (site TTAGGTGCTAC) | 1.17
TTTAATTCATGGACCGGTTTTCCCGGTAATCCGTATTTGGG (site TTTAATTCTCC) | 1.33
CACTTCTCATGGACCGGTTTTCCCGGTAATCCGTATTTGCC (site CACTGCTCTGG) | 0
GCTCGTCCATGGACCGGTTTTCCCGGTAATCCGTATTTGAG (site GCTCGTCCTCT) | 0.0111
CTCGACACATGGACCGGTTTTCCCGGTAATCCGTATTTGCT (site CTCCACACTAG) | 1.93
GGAAGATCATGGACCGGTTTTCCCGGTAATCCGTATTTGAA (site GGAAGATCTTT) | 2.06
CCCTTCTCATGGACCGGTTTTCCCGGTAATCCGTATTTGGC (site CCCTTCTCTAC) | 0.0232
TTTCCCGCATGGACCGGTTTTCCCGGTAATCCGTATTTGTC (site TTTCCCGCTGA) | 1.42
CTAGTATCATGGACCGGTTTTCCCGGTAATCCGTATTTGAC (site CTAAAATCTGT) | 0
AGGTAGGCATGGACCGGTTTTCCCGGTAATCCGTATTTGTT (site AGGTAGGCTAA) | 1.94
TAGCATTCATGGACCGGTTTTCCCGGTAATCCGTATTTGGT (site TAGCGTTCTAC) | 0.0097
CACGGCCCATGGACCGGTTTTCCCGGTAATCCGTATTTGTT (site CACGTCCCTAA) | 0.0115
GCGAAGCCATGGACCGGTTTTCCCGGTAATCCGTATTTGGG (site GCGAAACCTCC) | 0
CACGGCCCATGGACCGGTTTTCCCGGTAATCCGTATTTGTT (site CACGGCCCTAC) | 0.017
ATCTATACATGGACCGGTTTTCCCGGTAATCCGTATTTGAC (site ATCTATACTGT) | 2.44
ACTGGAACATGGACCGGTTTTCCCGGTAATCCGTATTTGAG (site ACTTGAACTCT) | 0.0249
GTGGAGGCATGGACCGGTTTTCCCGGTAATCCGTATTTGTG (site GTGCAGGCTCA) | 0.25
CTGCTAACATGGACCGGTTTTCCCGGTAATCCGTATTTGCT (site CTGCTAACTAG) | 2.26
GCGAATCCATGGACCGGTTTTCCCGGTAATCCGTATTTGGG (site GCGAAACCTCC) | 0.0049
GGAGGCCCATGGACCGGTTTTCCCGGTAATCCGTATTTGAT (site GGAGGCCCTAT) | 0.727
CGTACATCATGGACCGGTTTTCCCGGTAATCCGTATTTGCG (site CGTACATCTCG) | 1.29
TTAGTCTCATGGACCGGTTTTCCCGGTAATCCGTATTTGAT (site TTAGTCTCTAT) | 2.82
AGGGAACCATGGACCGGTTTTCCCGGTAATCCGTATTTGAT (site AGGGAACCTAT) | 0
GCCTAGACATGGACCGGTTTTCCCGGTAATCCGTATTTGGG (site TCCTAGACTCC) | 0.0888
